Columns and labels:
Assay type in all cases: biochemical
[1] = target: 92 kDa gelatinase (MMP-9) (Homo sapiens, UniProt P14780); assay: MMP-9 enzyme inhibition assay (coumarin-labeled peptide substrate); details: @ 5 μM; read-out: percentage inhibition MMP9
How it was run: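 Recombinant human MMP-9 (APMA-activated if needed) was assayed in 100 mM Tris-HCl pH 7.6, 100 mM NaCl, 10 mM CaCl2, 0.05% Brij 35, with McaPLGLDpaAR substrate at 37° C. for 2 h. Fluorescence was read at ex 320/em 405 nm over ten 3-fold compound doses (100 μM–5.1 nM) in duplicate. IC50 came from a four-parameter fit.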

[2] = target: metalloelastase (MMP-12) (Homo sapiens, UniProt P39900); assay: MMP-12 enzyme inhibition assay (coumarin-labelled peptide substrate); details: read-out: IC50 MMP12
metalloelastase (MMP-12), sequence (P39900 106-470): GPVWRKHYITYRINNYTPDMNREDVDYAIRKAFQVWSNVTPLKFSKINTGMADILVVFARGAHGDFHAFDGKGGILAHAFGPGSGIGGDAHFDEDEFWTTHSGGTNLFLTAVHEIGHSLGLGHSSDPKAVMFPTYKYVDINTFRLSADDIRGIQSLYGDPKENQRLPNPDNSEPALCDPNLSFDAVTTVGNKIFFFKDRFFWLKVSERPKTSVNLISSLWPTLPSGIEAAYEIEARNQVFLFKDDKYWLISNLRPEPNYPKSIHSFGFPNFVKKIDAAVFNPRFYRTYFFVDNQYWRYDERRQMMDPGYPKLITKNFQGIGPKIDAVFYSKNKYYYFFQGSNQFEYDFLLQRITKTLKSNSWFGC
How it was run: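 Recombinant human MMP-12 assayed per the MMP-9 protocol: Tris-HCl pH 7.6 buffer with NaCl, CaCl2, Brij 35; McaPLGLDpaAR substrate, compounds 100 μM–5.1 nM in duplicate, 2 h at 37° C. Fluorescence read at 405 nm (320 nm excitation) without stopping; IC50 from four-parameter fit.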

[3] = target: T1, gelatinase A (MMP-2) (Homo sapiens, UniProt P08253); assay: MMP-2 enzyme inhibition assay (coumarin-labelled peptide substrate); details: read-out: IC50 MMP2
T1 sequence (P08253 110-660): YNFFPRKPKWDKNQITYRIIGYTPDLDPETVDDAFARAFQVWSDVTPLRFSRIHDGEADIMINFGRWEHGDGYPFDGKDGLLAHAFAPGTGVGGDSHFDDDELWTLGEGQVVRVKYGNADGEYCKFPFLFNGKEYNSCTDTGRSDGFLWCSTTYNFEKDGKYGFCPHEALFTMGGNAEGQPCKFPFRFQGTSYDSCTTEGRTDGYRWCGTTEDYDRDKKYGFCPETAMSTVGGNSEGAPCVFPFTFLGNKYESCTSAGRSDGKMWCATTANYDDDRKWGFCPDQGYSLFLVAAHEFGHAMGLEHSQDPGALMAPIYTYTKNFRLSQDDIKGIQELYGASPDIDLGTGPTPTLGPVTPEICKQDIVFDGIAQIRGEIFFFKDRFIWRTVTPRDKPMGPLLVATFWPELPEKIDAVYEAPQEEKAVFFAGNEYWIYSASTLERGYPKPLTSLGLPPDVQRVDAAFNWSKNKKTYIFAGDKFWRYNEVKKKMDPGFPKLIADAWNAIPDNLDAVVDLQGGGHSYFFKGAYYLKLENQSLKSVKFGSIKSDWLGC
How it was run: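 Recombinant human MMP-2, APMA-activated if necessary, run as for the MMP-9 protocol: McaPLGLDpaAR substrate (8 μM working dilution) in 100 mM Tris-HCl pH 7.6, 100 mM NaCl, 10 mM CaCl2, 0.05% Brij 35; ten 3-fold concentrations (100 μM–5.1 nM) in duplicate, 2 h at 37° C. Fluorescence ex 320/em 405 nm, unstopped; IC50 from four-parameter fit.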

[4] = target: MMP-14 (Homo sapiens, UniProt P50281); assay: MMP-14 enzyme inhibition assay (coumarin-labelled peptide substrate); details: read-out: percentage inhibition MMP14
How it was run: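 Recombinant human enzyme, APMA-activated if necessary, was incubated with McaPLGLDpaAR substrate and compound (10 concentrations in duplicate, 100 μM to 5.1 nM) in Tris-HCl pH 7.6 with NaCl, CaCl2 and Brij 35 for 2 h at 37 °C. Fluorescence was read at 320/405 nm, and IC50 was taken from a four-parameter fit.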

92 kDa gelatinase (MMP-9), sequence (P14780 107-707 limits assumed): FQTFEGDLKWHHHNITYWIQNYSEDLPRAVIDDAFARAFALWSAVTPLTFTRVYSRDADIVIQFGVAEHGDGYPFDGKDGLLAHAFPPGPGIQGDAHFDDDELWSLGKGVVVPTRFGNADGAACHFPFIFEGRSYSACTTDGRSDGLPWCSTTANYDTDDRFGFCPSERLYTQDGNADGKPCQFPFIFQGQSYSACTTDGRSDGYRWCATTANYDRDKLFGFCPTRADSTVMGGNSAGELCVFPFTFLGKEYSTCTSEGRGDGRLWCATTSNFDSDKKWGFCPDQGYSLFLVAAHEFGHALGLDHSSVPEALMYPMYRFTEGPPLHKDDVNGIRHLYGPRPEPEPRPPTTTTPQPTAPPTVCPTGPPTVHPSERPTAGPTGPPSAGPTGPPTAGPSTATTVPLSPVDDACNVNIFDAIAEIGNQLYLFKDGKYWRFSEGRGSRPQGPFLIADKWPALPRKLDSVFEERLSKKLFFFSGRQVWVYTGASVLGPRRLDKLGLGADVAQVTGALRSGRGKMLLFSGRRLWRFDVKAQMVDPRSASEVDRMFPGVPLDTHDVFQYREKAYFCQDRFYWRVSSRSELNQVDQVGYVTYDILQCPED

inhibition at 5 µM [1]	IC50 [2]	IC50 [3]	inhibition at 5 µM [4]	inhibition at 0.1 µM [4]	SMILES
26%	18 nM	527 nM	63%		O=CN(O)C(CS(=O)(=O)N1CCc2ccc(-c3ccccc3)cc2C1)C1CCCC1 (centres unmarked) [Example 69, N-{1-cyclopentyl-2-[(7-phenyl-3,4-dihydroisoquinolin-2(1H)-yl)sulfonyl]ethyl}-N-hydroxyformamide]
3%	41 nM	1560 nM	27%		O=CN(O)C(CS(=O)(=O)N1CCc2ccc(-c3cccc(O)c3)cc2C1)C1CCCC1 (centres unmarked) [Example 70, N-(1-cyclopentyl-2-{[7-(3-hydroxyphenyl)-3,4-dihydroisoquinolin-2(1H)-yl]sulfonyl}ethyl)-N-hydroxyformamide]
28%	20 nM	510 nM	63%		O=CN(O)C(CS(=O)(=O)N1Cc2ccccc2C1)C1CC1 (centres unmarked) [Example 72, N-[1-cyclopropyl-2-(1,3-dihydro-2H-isoindol-2-ylsulfonyl)-ethyl]-N-hydroxyformamide]
5%	45 nM	187 nM	40%		O=CN(O)C(CS(=O)(=O)N1CCc2ccc(Cl)cc2C1)C1CC1 (centres unmarked) [Example 73, N-{2-[(7-chloro-3,4-dihydroisoquinolin-2(1H)-yl)sulfonyl]-1-cyclopropylethyl}-N-hydroxyformamide]
32%	5.2 nM	97 nM	76%		O=CN(O)C(CS(=O)(=O)N1CCc2cc(C(F)(F)F)ccc2C1)C1CC1 (centres unmarked) [Example 74, N-(1-cyclopropyl-2-{[6-(trifluoromethyl)-3,4-dihydro-isoquinolin-2(1H)-yl]sulfonyl}ethyl)-N-hydroxyformamide]
71%	6 nM	219 nM	92%	11%	O=CN(O)C(CS(=O)(=O)N1CCc2ccc(-c3ccc(F)cc3)cc2C1)C1CC1 (centres unmarked) [Example 75, N-(1-cyclopropyl-2-{[7-(4-fluorophenyl)-3,4-dihydro-isoquinolin-2(1H)-yl]sulfonyl}ethyl)-N-hydroxyformamide]
14%	22 nM	82 nM	59%		O=CN(O)C(CCC(F)(F)F)CS(=O)(=O)N1CCc2ccc(Cl)cc2C1 (centres unmarked) [Example 76, N-(1-{[(7-chloro-3,4-dihydroisoquinolin-2(1H)-yl)-sulfonyl]methyl}-4,4,4-trifluorobutyl)-N-hydroxyformamide]
35%	5.1 nM	31 nM	78%		O=CN(O)C(CS(=O)(=O)N1CCc2cc(Cl)c(Cl)cc2C1)C1CCCC1 (centres unmarked) [Example 77, N-{1-cyclopentyl-2-[(6,7-dichloro-3,4-dihydroisoquinolin-2(1H)-yl)sulfonyl]ethyl}-N-hydroxyformamide]
57%	2 nM	67 nM	72%	19%	O=CN(O)C(CS(=O)(=O)N1CCc2ccc(-c3ccncc3)cc2C1)C1CCCC1 (centres unmarked) [Example 79, N-{1-cyclopentyl-2-[(7-pyridin-4-yl-3,4-dihydroisoquinolin-2(1H)-yl)sulfonyl]ethyl}-N-hydroxyformamide]
0%	45 nM	474 nM	15%		O=CN(O)C(CS(=O)(=O)N1Cc2ccc(F)cc2C1)C1CCCC1 (centres unmarked) [Example 80, N-{1-cyclopentyl-2-[(5-fluoro-1,3-dihydro-2H-isoindol-2-yl)sulfonyl]ethyl}-N-hydroxyformamide]
44%	3.1 nM	63 nM	87%	0%	CC(C)c1ccc2c(c1)CCN(S(=O)(=O)CC(C1CCCC1)N(O)C=O)C2 (centres unmarked) [Example 81, N-{1-cyclopentyl-2-[(6-isopropyl-3,4-dihydroisoquinolin-2(1H)-yl)sulfonyl]ethyl}-N-hydroxyformamide]
0%	26 nM	348 nM	20%		O=CN(O)C(CS(=O)(=O)N1CCc2ccc(C(F)(F)F)cc2C1)C1CCCC1 (centres unmarked) [Example 82, N-(1-cyclopentyl-2-{[7-(trifluoromethyl)-3,4-dihydro-isoquinolin-2(1H)-yl]sulfonyl}ethyl)-N-hydroxyformamide]
4%	52 nM	686 nM	6%		O=CN(O)C(CS(=O)(=O)N1CCc2ccc(C(F)(F)F)cc2C1)C1CC1 (centres unmarked) [Example 83, N-(1-cyclopropyl-2-{[7-(trifluoromethyl)-3,4-dihydroisoquinolin-2(1H)-yl]sulfonyl}ethyl)-N-hydroxyformamide]
28%	4.9 nM	78 nM	95%	14%	CC(C)c1ccc2c(c1)CCN(S(=O)(=O)CC(C1CC1)N(O)C=O)C2 (centres unmarked) [Example 85, N-{1-cyclopropyl-2-[(6-isopropyl-3,4-dihydroisoquinolin-2(1H)-yl)sulfonyl]ethyl}-N-hydroxyformamide]
52%	9.8 nM	21 nM	100%	12%	O=CN(O)C(CCc1cccnc1)CS(=O)(=O)N1CCc2ccc(Cl)cc2C1 (centres unmarked) [Example 86, N-(1-{[(7-chloro-3,4-dihydroisoquinolin-2(1H)-yl)sulfonyl]methyl}-3-pyridin-3-ylpropyl)-N-hydroxyformamide]

Reference: US7879876B2, “Sulfonamide derivatives and use thereof for the modulation of metalloproteinases” (Merck Serono SA, priority 2005, dated 2011)
